Literature values as cited in patent US8530651B2, “Process for the preparation of anagrelide and analogues” (Shire LLC, priority 2008, dated 2013).
Read-outs that look alike come from different tables or passages of the source.

Columns and labels:
[1] = monkeys; radiolabeled base
[2] = humans; radiolabeled base
[3] = solid

- absorption into blood plasma [1]: complete absorption
- absorption into blood plasma [2]: complete absorption
- aqueous solubility [3]: low aqueous solubility
SMILES: O=C1CN2Cc3c(ccc(Cl)c3Cl)N=C2N1 [anagrelide base, 6,7-dichloro-1,5-dihydroimidazo[2,1-b]quinazolin-2 (3H)-one]
